Reference: article PMC12386980, “Functional Analysis of NPC2 in Alarm Pheromone Recognition by the Red Imported Fire Ant, Solenopsis invicta (Formicidae: Solenopsis)” (Insects, 2025)

Experiments:
SinvNPC2a [1] = target: T1, SinvNPC2a (Solenopsis invicta, UniProt Z9QIP2HJ34); experiment: fluorescence competitive binding assay, 1-NPN displacement
T1 construct: recombinant from pET28a in E. coli BL21(DE3) pLysS, soluble, Ni-IDA purified

SinvNPC2a [2] = target: T1, SinvNPC2a; experiment: as above; remark: listed apart in the source

T1 sequence (Z9QIP2HJ34 21-153 limits assumed): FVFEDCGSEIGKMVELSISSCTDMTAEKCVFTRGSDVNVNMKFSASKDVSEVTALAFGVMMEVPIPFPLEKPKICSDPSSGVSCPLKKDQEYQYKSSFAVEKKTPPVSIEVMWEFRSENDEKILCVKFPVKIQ

- Ki (SinvNPC2a [1]): 5.09 ± 1.51 µM
- IC50 (SinvNPC2a [2]): 9.82 µM
SMILES: CCc1nc(C)cnc1C [EDMP, 2-ethyl-3,6-dimethylpyrazine]
